Drawing on ChEMBL document CHEMBL5108026, “An overview on Estrogen receptors signaling and its ligands in breast cancer” (Eur J Med Chem, 2022), this text covers EC50, IC50 and Ki for five compounds.

Experiment [1] addresses T1, Estrogen receptor beta (Homo sapiens, UniProt Q92731). Briefly: Agonist activity at human ER-beta transfected in African green monkey COS-7 cells measured after 24 hrs by Steady-Glo luciferase assay. The class given is cell-based.
For the next experiment, the system named is MCF7. Put plainly: Antiproliferative activity against human MCF7 cells assessed as inhibition of cell growth. The class given is functional, cell-based.
Another experiment concerns the target T2, Aromatase (Rattus norvegicus, UniProt P22443).
T2 sequence (P22443 whole entry): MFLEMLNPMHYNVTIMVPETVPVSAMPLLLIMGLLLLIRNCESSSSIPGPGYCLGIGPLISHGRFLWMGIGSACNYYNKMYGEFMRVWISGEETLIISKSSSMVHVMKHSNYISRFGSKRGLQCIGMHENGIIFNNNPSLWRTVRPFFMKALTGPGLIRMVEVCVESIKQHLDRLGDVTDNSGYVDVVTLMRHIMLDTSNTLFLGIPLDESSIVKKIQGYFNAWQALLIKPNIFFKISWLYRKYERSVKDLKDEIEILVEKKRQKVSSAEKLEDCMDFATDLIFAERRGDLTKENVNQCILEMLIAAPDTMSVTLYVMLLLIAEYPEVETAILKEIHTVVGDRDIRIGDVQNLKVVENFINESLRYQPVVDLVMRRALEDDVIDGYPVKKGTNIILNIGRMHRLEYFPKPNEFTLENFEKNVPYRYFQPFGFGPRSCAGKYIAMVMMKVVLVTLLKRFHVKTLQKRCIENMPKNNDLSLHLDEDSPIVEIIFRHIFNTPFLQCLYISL
Put plainly: Inhibition of aromatase in rat mammary tumor. The class given is tissue-based, Mammary gland.

The next experiment concerns the target T3, Estrogen receptor (Homo sapiens, UniProt P03372).
T3 sequence (P03372 whole entry): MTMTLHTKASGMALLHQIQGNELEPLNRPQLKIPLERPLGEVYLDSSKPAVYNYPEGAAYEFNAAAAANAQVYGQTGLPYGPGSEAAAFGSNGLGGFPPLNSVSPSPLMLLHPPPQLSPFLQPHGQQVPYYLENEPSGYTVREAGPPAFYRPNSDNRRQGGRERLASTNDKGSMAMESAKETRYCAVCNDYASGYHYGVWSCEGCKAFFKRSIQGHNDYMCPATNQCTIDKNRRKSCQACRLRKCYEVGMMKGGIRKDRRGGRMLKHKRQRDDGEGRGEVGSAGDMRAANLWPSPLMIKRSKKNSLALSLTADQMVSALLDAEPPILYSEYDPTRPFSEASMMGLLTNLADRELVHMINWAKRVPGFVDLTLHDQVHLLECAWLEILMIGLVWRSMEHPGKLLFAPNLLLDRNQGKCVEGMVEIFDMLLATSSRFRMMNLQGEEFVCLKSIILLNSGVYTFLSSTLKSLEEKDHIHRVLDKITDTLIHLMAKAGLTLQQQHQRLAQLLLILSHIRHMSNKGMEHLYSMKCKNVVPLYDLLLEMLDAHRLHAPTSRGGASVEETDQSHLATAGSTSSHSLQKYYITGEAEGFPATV
Put plainly: Modulation of ER-alpha (unknown origin).

Experiment [2] deals with T1, Estrogen receptor beta. Put plainly: Modulation of ER-beta (unknown origin).
Experiment [3] concerns the target T1, Estrogen receptor beta. Briefly: Displacement of EL red from human full-length ER-beta expressed in baculovirus expression system incubated for 2 hrs by fluorescence polarization assay. A general note: Polarisation of emitted light reports the rotation of a fluorescent probe.

Each structure is given as a SMILES string.

T1 sequence (Q92731 whole entry): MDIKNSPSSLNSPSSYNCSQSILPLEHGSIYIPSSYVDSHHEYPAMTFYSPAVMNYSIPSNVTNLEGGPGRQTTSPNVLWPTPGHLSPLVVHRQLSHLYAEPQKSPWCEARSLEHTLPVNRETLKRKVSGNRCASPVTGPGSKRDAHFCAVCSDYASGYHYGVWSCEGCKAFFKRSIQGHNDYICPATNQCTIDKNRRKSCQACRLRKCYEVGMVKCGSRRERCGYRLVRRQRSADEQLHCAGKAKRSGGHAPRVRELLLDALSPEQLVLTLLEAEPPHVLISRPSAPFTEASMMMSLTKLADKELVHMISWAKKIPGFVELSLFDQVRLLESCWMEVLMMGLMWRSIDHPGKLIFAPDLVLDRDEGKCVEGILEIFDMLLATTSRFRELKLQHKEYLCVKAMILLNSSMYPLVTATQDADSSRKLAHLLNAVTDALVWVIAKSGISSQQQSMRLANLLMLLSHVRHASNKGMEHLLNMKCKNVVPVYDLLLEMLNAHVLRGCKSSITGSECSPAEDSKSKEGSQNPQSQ

Usually EC50 stands for the midpoint of the concentration-response curve. At Estrogen receptor beta [1], `CCOC(=O)C1(C(C)=O)Cc2ccc([C@]3(O)CC[C@H]4[C@@H]5CCc6cc(O)ccc6[C@H]5CC[C@@]43C)cc2C1` (stereo partly specified) gave an EC50 of 1.8 nM.
What is called IC50 is the concentration that inhibits the measured activity by half. As to `C[C@]12CC[C@@H]3c4ccc(O)cc4C[C@@H](CCCCCCCCC[S+]([O-])CCCC(F)(F)C(F)(F)F)[C@H]3[C@@H]1CC[C@@H]2O` (stereo partly specified) [FULVESTRANT], in the experiment with MCF7, the IC50 came out at 0.29 nM.
Usually Ki stands for a dissociation constant, usually derived from enzyme kinetics or from competition with a known ligand. At Aromatase, `C[C@]12C=CC(=O)C=C1C[C@@H](Sc1ccc(N)cc1)[C@@H]1[C@@H]2CC[C@]2(C)C(=O)CC[C@@H]12` gave a Ki of 18 nM.
With `C[C@]12CC[C@@H]3c4ccc(O)cc4CC[C@H]3[C@@H]1C[C@H]1OC(=O)C[C@]12O`, the values for the 50% effective concentration (EC50) at Estrogen receptor and on Estrogen receptor beta [2] were 0.014 nM and 23 nM, respectively.
On Estrogen receptor beta [3], `Oc1ccc([C@H]2COc3cc(O)ccc3C2)cc1` [AUS-131] registered an IC50 of 5570 nM.
